We go through 26 compounds from US20130109758A1, “BISPHENOL DERIVATIVE THERAPEUTICS AND METHODS FOR THEIR USE” (THE UNIVERSITY OF BRITISH COLUMBIA, priority 2010, published 2013).

The test addresses T1, androgen receptor (AR) (Homo sapiens, UniProt P10275, T878A).
T1 construct: LNCaP cells express endogenous AR and secrete prostate-specific antigen (PSA); endogenous in cells; host or cells: LNCaP human prostate cancer cells
T1 sequence (P10275 1-920 T878A): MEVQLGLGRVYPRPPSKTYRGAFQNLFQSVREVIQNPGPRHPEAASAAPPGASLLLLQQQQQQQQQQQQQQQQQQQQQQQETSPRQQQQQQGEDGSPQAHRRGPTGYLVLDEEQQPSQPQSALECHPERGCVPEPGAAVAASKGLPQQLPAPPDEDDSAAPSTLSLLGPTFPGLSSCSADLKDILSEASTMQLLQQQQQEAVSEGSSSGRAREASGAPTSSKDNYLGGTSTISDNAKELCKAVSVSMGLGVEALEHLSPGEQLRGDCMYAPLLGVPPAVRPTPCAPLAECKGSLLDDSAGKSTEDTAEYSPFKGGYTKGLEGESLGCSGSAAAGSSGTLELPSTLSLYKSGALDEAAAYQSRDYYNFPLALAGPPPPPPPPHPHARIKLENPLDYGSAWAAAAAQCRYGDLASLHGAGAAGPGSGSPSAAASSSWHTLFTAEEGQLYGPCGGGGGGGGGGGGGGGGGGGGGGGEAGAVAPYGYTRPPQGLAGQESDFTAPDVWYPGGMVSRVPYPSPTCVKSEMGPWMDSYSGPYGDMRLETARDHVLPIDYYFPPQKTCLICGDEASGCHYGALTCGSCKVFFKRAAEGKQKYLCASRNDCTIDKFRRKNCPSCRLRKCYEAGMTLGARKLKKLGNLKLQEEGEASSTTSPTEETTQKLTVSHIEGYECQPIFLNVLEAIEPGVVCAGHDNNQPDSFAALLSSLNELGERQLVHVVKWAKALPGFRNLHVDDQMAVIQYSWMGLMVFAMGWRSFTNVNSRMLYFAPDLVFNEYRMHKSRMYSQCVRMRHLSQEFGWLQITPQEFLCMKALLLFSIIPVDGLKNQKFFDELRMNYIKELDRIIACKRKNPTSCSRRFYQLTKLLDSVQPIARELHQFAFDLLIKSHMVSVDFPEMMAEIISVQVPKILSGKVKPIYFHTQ
Description: LNCaP PSA (6.1 kb)-luciferase assay (R1881-induced). Format: cell-based. The following applies: for EXPERIMENTAL DATA (activity in the LNCaP PSA (6.1 kb)-luciferase assay): LNCaP cells transfected with PSA (6.1 kb)-luciferase, 1 h pre-treatment with compound, R1881 1 nM, 48 h; for androgen receptor inhibitory activity: LNCaP PSA (6.1 kb)-luciferase assay, dose response against DMSO and EPI-001 controls (FIGS. 1-6). From the text: LNCaP cells were employed initially for all experiments because they are well-differentiated human prostate cancer cells in which ligand-independent activation of the AR by FSK has been characterized (Nazareth et al 1996 J. Biol. Chem. 271, 19900-19907; and Sadar 1999 J. Biol. Chem. 274, 7777-7783). LNCaP cells express endogenous AR and secrete prostate-specific antigen (PSA) (Horoszewicz et al 1983 Cancer Res. 43, 1809-1818). LNCaP cells can be grown either as monolayers in cell culture or as tumors in the well-characterized xenograft model that progresses to androgen independence in castrated hosts (Sato et al 1996 J. Steroid Biochem. Mol. Biol. 58, 139-146; Gleave et al 1991 Cancer Res. 51, 3753-3761; Sato et al 1997 Cancer Res. 57, 1584-1589; and Sadar et al 2002 Mol. Cancer. Ther. 1(8), 629-637). […] Small molecules that specifically target the AR-NTD should have no effect on PC3 cells. This means that they should not alter the proliferation of PC3 cells if they specifically block the AR to mediate their inhibitory effects. R1881 was employed since it is stable and avoids problems associated with the labile physiological ligand dihydrotestosterone (DHT). Reporter specificity may be determined using several alternative reporter gene constructs. Some well characterized ARE-driven reporter gene constructs that have been used extensively are the PSA (6.1 kb) enhance/promoter which contains several AREs and is highly inducible by androgens as well as by FSK (Ueda et al 2002 A J. Biol. Chem. 277, 7076-7085) and the ARR3-thymidine kinase (tk)-luciferase, which is an artificial reporter construct that contains three tandem repeats of the rat probasin ARE1 and ARE2 regions upstream of a luciferase reporter (Snoek et al 1996 J. Steroid Biochem. Mol. Biol. 59, 243-250).
LNCaP cells were transiently cotransfected with PSA (6.1 kb)-luciferase (0.25 μg/well) in 24-well plates for 24 h prior to pre-treatment with compounds for 1 hour before the addition of synthetic androgen, R1881 (1 nM) to induce PSA production or vehicle. The total amount of plasmid DNA transfected was normalized to 0.75 μg/well by the addition of the empty vector. After 48 h of incubation with R1881, the cells were harvested, and relative luciferase activity was determined. Test compounds were added to the cells at various concentrations and activity for each treatment was normalized to the predicted maximal activity induction (in the absence of test compounds, vehicle only). Plotting of sigmoidal curves (Boltzmann Function) and IC50 calculations were done using OriginPro 8.1 Software (Northampton, Mass., USA).
Using the LNCaP PSA (6.1 kb)-luciferase assay described above, various compounds described herein were tested against DMSO and EPI-001 controls. In FIG. 1, a comparison is made between EPI-100, EPI-101, EPI-102 and DMSO from 1 to 35 μM. […] In FIG. 3A, EPI-107 is compared to DMSO and EPI-001 at 2.5 μM to 10 μM. In FIG. 3B, EPI-108 is compared to DMSO at 0.5 μM to 35 μM. In FIG. 4A, EPI-114 is compared to DMSO and EPI-001 at 5 μM and 10 μM. In FIG. 4B, EPI-116 is compared to DMSO and EPI-001 at 1 μM to 30 μM.

In the case of `C#CCOc1ccc(C(=O)c2ccc(OCC#C)cc2)cc1` [drawing 508], the “EXPERIMENTAL DATA (activity in the LNCaP PSA (6.1 kb)-luciferase assay)” value (“EXPERIMENTAL DATA” for short) is on record as “Active”.
In the case of `C#CCOc1ccc(C(=O)c2ccc(OC[C@@H](O)CCl)cc2)cc1`, the “EXPERIMENTAL DATA” value is recorded as “Active”.
Take `C#CCOc1ccc(C(=O)c2ccc(OCC(O)CO)cc2)cc1` (stereo not drawn) [EPI-111]: the “androgen receptor inhibitory activity” value is reported as “showed androgen receptor inhibitory activity”.
For the compound `C#CCOc1ccc(C(=O)c2ccc(O)cc2)cc1` [drawing 505], the “EXPERIMENTAL DATA” value is reported as “Active”.
As for `O=C(c1ccc(OCC(O)CCl)cc1)c1ccc(OCC(O)CCl)cc1` (stereo not drawn) [EPI-114], the “androgen receptor inhibitory activity” value is “showed androgen receptor inhibitory activity”.
As for `O=C(c1ccc(O)cc1)c1ccc(OCCCCl)cc1` [drawing 512], the “EXPERIMENTAL DATA” value was “Active”.
In the case of `OC(CCl)COc1ccc(Sc2ccc(OCC(O)CCl)cc2)cc1` (centres unmarked) [drawing 514], the “EXPERIMENTAL DATA” value was “Active”.
Consider `C#CCOc1ccc(C(=O)c2ccc(OCCCCl)cc2)cc1` [drawing 506], for which the “EXPERIMENTAL DATA” value was “Active”.
`OC(CCl)COc1ccc(-c2ccc(OCC(O)CCl)cc2)cc1` (stereo not drawn) [EPI-3000]: the “androgen receptor inhibitory activity” value is “showed androgen receptor inhibitory activity”.
Same read-out and setting: the value for `OC(CCl)COc1ccc(Oc2ccc(OCC(O)CCl)cc2)cc1` (stereo not drawn) [EPI-300] was “showed androgen receptor inhibitory activity”; that for `C#CCOc1ccc(C(=O)c2ccc(OCC#C)cc2)cc1` [EPI-109] was “showed androgen receptor inhibitory activity”.
For the compound `C#CCOc1ccc(C(=O)c2ccc(OCCCBr)cc2)cc1` [drawing 507], the “EXPERIMENTAL DATA” value was “Active”.
Consider `O=C(c1ccc(O)cc1)c1ccc(OCCCCl)cc1` [EPI-117], for which the “androgen receptor inhibitory activity” value is reported as “showed androgen receptor inhibitory activity”.
Regarding `OC(CCl)COc1ccc(-c2ccc(OCC(O)CCl)cc2)cc1` (centres unmarked) [drawing 515], the “EXPERIMENTAL DATA” value is given as “Active”.
On to `C#CCOc1ccc(C(=O)c2ccc(OCC(O)CCl)cc2)cc1` (centres unmarked), for which the “EXPERIMENTAL DATA” value was “Active”.
As to `C#CCOc1ccc(C(=O)c2ccc(O)cc2)cc1` [EPI-106], the “androgen receptor inhibitory activity” value is “showed androgen receptor inhibitory activity”.
Consider `C#CCOc1ccc(C(=O)c2ccc(OCC(O)CO)cc2)cc1` (centres unmarked) [drawing 509], for which the “EXPERIMENTAL DATA” value is “Active”.
With `C#CCOc1ccc(C(=O)c2ccc(OCCCBr)cc2)cc1` [EPI-108], the “androgen receptor inhibitory activity” value is listed as “showed androgen receptor inhibitory activity”.
The same measure, in the same setting: the value for `OC(CCl)COc1ccc(Sc2ccc(OCC(O)CCl)cc2)cc1` (stereo not drawn) [EPI-400] was “showed androgen receptor inhibitory activity”.
Regarding `O=C(c1ccc(OCCCCl)cc1)c1ccc(OCCCCl)cc1` [EPI-116], the “androgen receptor inhibitory activity” value was “showed androgen receptor inhibitory activity”.
Regarding `OC(CCl)COc1ccc(Oc2ccc(OCC(O)CCl)cc2)cc1` (centres unmarked) [drawing 513], the “EXPERIMENTAL DATA” value is on record as “Active”.
As to `O=C(c1ccc(OCC(O)CCl)cc1)c1ccc(OCC(O)CCl)cc1` (centres unmarked) [drawing 510], the “EXPERIMENTAL DATA” value is given as “Active”.
`O=C(c1ccc(OCCCCl)cc1)c1ccc(OCCCCl)cc1` [drawing 511]: the “EXPERIMENTAL DATA” value is recorded as “Active”.
Regarding `C#CCOc1ccc(C(=O)c2ccc(OCCCCl)cc2)cc1` [EPI-107], the “androgen receptor inhibitory activity” value was “showed androgen receptor inhibitory activity”.
Consider `CC(C)(c1ccc(OCC(O)CO)cc1)c1ccc(OCC(O)CCl)cc1` (centres unmarked) [reference compound], for which the “EXPERIMENTAL DATA” value is recorded as “Active (positive control)”.
Turning to `C#CCOc1ccc(C(=O)c2ccc(OC[C@H](O)CCl)cc2)cc1`, the “EXPERIMENTAL DATA” value was “Active”.
